Measured values published in patent publication US20160264570A1, “METHOD OF BLOCKING TRANSMISSION OF MALARIAL PARASITE” (THE UNITED STATES OF AMERICA, AS REPRESENTED BY THE …, priority 2013, published 2016).
pEC50: −log10 of the molar value.

Columns and labels:
[1] = test system: Asexual parasites of P. falciparum strain 3D7; test: SYBR Green viability assay on asexual parasites; type: cell-based, Plasmodium falciparum; details: Table 6; read-out: Activity against asexual parasites EC50
[2] = test system: P. falciparum strain 3D7 gametocytes; test: alamarBlue gametocyte viability assay, strain 3D7; details: read-out: Gametocytocidal activity EC50; Table 6

Row | Compound | pEC50 [1] | pEC50 [2]
1 | O=c1ccc2cnc3ccc(-c4ccccc4)cc3c2n1-c1cccc(C(F)(F)F)c1 | 6.95 | 6.20
2 | O=c1ccc2cnc3ccc(-c4ccncc4)cc3c2n1-c1cccc(C(F)(F)F)c1 | 7.04 | 6.61
3 | Nc1ncc(-c2ccc3ncc4ccc(=O)n(-c5cccc(C(F)(F)F)c5)c4c3c2)cn1 | 7.66 | 7.40
4 | O=c1ccc2cnc3ccc(-c4cccnc4)cc3c2n1-c1cccc(C(F)(F)F)c1 | 6.96 | 6.27
5 | O=c1ccc2cnc3ccc(-c4cncnc4)cc3c2n1-c1cccc(C(F)(F)F)c1 | 6.32 | 6.03
6 | CCn1c(=O)ccc2cnc3ccc(-c4ccc(N)nc4)cc3c21 | 5.89 | 5.78
7 | CC(=O)Nc1ccc(-c2ccc3ncc4ccc(=O)n(-c5cccc(C(F)(F)F)c5)c4c3c2)cn1 | 6.97 | 6.94
8 | Cc1nc(N)ncc1-c1ccc2ncc3ccc(=O)n(-c4cccc(C(F)(F)F)c4)c3c2c1 | 5.94 | 5.65
9 | O=c1ccc2cnc3ccc(-c4ccc5[nH]ccc5c4)cc3c2n1-c1cccc(C(F)(F)F)c1 | 6.72 | 6.49
10 | O=c1ccc2cnc3ccc(-c4ccc5[nH]ncc5c4)cc3c2n1-c1cccc(C(F)(F)F)c1 | 7.19 | 7.13
11 | Nc1ccc(-c2ccc3ncc4ccc(=O)n(-c5cccc(C(F)(F)F)c5)c4c3c2)cc1 | 7.00 | 6.83
12 | O=c1ccc2cnc3ccc(-c4cn[nH]c4)cc3c2n1-c1cccc(C(F)(F)F)c1 | 6.88 | 6.61
13 | O=c1ccc2cnc3ccc(-c4ccc5[nH]cnc5c4)cc3c2n1-c1cccc(C(F)(F)F)c1 | 7.43 | 7.02
14 | Cc1ccc(C(F)(F)F)cc1-n1c(=O)ccc2cnc3ccc(-c4ccc(N)nc4)cc3c21 | 7.36 | 7.19
15 | Cc1cccc(-n2c(=O)ccc3cnc4ccc(-c5ccc(N)nc5)cc4c32)c1 | 7.64 | 7.72
16 | Nc1ccc(-c2ccc3ncc4ccc(=O)n(-c5cccc(Cl)c5)c4c3c2)cn1 | 8.00 | 7.74
17 | N#Cc1cccc(-n2c(=O)ccc3cnc4ccc(-c5ccc(N)nc5)cc4c32)c1 | 7.92 | 7.64

Row | Compound | pEC50 [1] | pEC50 [2]
18 | COc1cccc(-n2c(=O)ccc3cnc4ccc(-c5ccc(N)nc5)cc4c32)c1 | 7.02 | 6.86
19 | Nc1ccc(-c2ccc3ncc4ccc(=O)n(-c5cccc(S(N)(=O)=O)c5)c4c3c2)cn1 | 7.09 | 6.53
20 | Nc1ccc(-c2ccc3ncc4ccc(=O)n(-c5ccc(N6CCNCC6)c(C(F)(F)F)c5)c4c3c2)cn1 | 8.05 | 8.00
21 | O=c1ccc2cnc3ccc(-c4cnc5ccccc5c4)cc3c2n1-c1cccc(C(F)(F)F)c1 | 5.93 | 5.64
22 | Nc1ccc(-c2ccc3ncc4ccc(=O)n(CC5CCNCC5)c4c3c2)cn1 | 5.19 | 4.94
23 | Nc1ccc(-c2ccc3ncc4ccc(=O)n(-c5ccccc5)c4c3c2)cn1 | 7.48 | 7.33
24 | O=c1ccc2cnc3ccc(N4CCNCC4)cc3c2n1-c1cccc(C(F)(F)F)c1 | < 4.70 | 4.66
25 | O=c1ccc2cnc3ccc(C4=CCNCC4)cc3c2n1-c1cccc(C(F)(F)F)c1 | 4.80 | 4.74
26 | CN(C)C(=O)c1cccc(-n2c(=O)ccc3cnc4ccc(-c5ccc(N)nc5)cc4c32)c1 | 6.07 | 5.82
27 | Nc1ccc(-c2ccc3ncc4ccc(=O)n(-c5cccc(Oc6ccccc6)c5)c4c3c2)cn1 | 5.78 | 5.61
28 | CCOc1cccc(-n2c(=O)ccc3cnc4ccc(-c5ccc(N)nc5)cc4c32)c1 | 6.17 | 6.04
29 | CN(C)c1ncc(-c2ccc3ncc4ccc(=O)n(-c5cccc(C(F)(F)F)c5)c4c3c2)cn1 | 5.71 | 5.50
30 | Nc1ccc(-c2ccc3ncc4ccc(=O)n(C5CCNCC5)c4c3c2)cn1 | 5.62 | 5.55
31 | Nc1ccc(-c2ccc3ncc4ccc(=O)n(C5CC5)c4c3c2)cn1 | 6.25 | 6.67
32 | Nc1ccc(-c2ccc3ncc4ccc(=O)n(C5CCOCC5)c4c3c2)cn1 | 5.87 | 7.39
33 | Nc1ccc(-c2ccc3ncc4ccc(=O)n(C5CCCCC5)c4c3c2)cn1 | 6.15 | 6.17
34 | Nc1ccc(-c2ccc3ncc4ccc(=O)n(C5CCCC5)c4c3c2)cn1 | 6.05 | 5.90
